# How the values were obtained:
# HL60 cells [1] = assay: HL60 cell differentiation on exposure to inducing chemical; assay type: cell-based
# Experimental: HL60 cells, provided by American Type Cell Culture (Manassas, Va.), were grown in RPMI medium 1640 with 10% fetal bovine serum (Sigma, St. Louis, Mo.) and 1% penicillin-streptomycin. For design of the model, neutrophil differentiation was stimulated with 1 uM ATRA (Sigma, St. Louis, Mo.) for 0, 24, 48, 72, and 120 hours and with 1.25% dimethyl sulfoxide (DMSO) (American Bioanalytical, Natick, Mass.) for 72 hours. Monocyte/macrophage differentiation was induced with 10 nM phorbol 12-myristate 13-acetate (PMA) (Sigma, St. Louis, Mo.) for 0, 4, 12, and 24, and 120 hours and with Vitamin D3 (1 alpha 25-dihydroxy) (Calbiochem, San Diego, Calif.) 2.5 uM for 72 hours. Differentiation was confirmed by morphological changes by light microscopy for monocyte/macrophage differentiation and by May Grunwald Giemsa stain for neutrophil differentiation.
# Acute Myeloid Leukemia (AML) represents a form of cancer for which improved treatment in therapy is greatly sought. For more than 20 years, researchers have used a cell line (HL60 cell line) which closely mimics the behavior of AML and which is easily maintained in cell culture. […] The different gene expression signatures were evaluated for “in vivo authenticity” by confirming the same gene expression differences in native human neutrophils and native human monocytes compared to patient AML cells. […]
# HL60 cells [2] = assay: Marker gene expression ratios to GAPDH in HL60 control cells (multiplex RT-PCR, direct gene dendrimer readout); assay type: cell-based; conditions: for Ave IL1RN/GAPDH / Ave SPP1/GAPDH / IL1RN fold increase over AML / SPP1 fold increase over AML: HL60 cells; for Ave IL1RN/GAPDH / Ave SPP1/GAPDH: highest stringency filter of 50% dilution, 1 uM ATRA or 10 nM PMA; for IL1RN fold increase over AML / SPP1 fold increase over AML: versus undifferentiated HL60 (AML)
# [3] = treated HL60 cells, text summary over 3 plex and 5 plex
smiles,measurement,setting,value
"CC1=C(/C=C/C(C)=C/C=C/C(C)=C/C(=O)O)C(C)(C)CCC1 [ATRA, all trans retinoic acid]",differentiation of HL60 cells upon exposure,HL60 cells [1],differentiated into neutrophils
same,Ave IL1RN/GAPDH,HL60 cells [2]; 3 plex,0.02
same,Ave SPP1/GAPDH,HL60 cells [2]; 3 plex,0.03
same,Ave IL1RN/GAPDH,HL60 cells [2]; 5 plex,0.02
same,Ave SPP1/GAPDH,HL60 cells [2]; 5 plex,0.02
"CCCCCCCCCCCCCC(=O)O[C@@H]1[C@@H](C)[C@@]2(O)[C@@H](C=C(CO)C[C@]3(O)C(=O)C(C)=C[C@@H]23)[C@@H]2C(C)(C)[C@]12OC(C)=O [PMA, Phorbol 12-myristate 13-acetate]",differentiation of HL60 cells upon exposure,HL60 cells [1],differentiated into monocyte/macrophage
same,Ave IL1RN/GAPDH,HL60 cells [2]; 3 plex,2.04
same,Ave SPP1/GAPDH,HL60 cells [2]; 3 plex,1.17
same,IL1RN fold increase over AML,HL60 cells [2]; 3 plex,84.4 fold
same,SPP1 fold increase over AML,HL60 cells [2]; 3 plex,55.1 fold
same,Ave IL1RN/GAPDH,HL60 cells [2]; 5 plex,0.98
same,Ave SPP1/GAPDH,HL60 cells [2]; 5 plex,0.55
same,IL1RN fold increase over AML,HL60 cells [2]; 5 plex,40.5 fold
same,SPP1 fold increase over AML,HL60 cells [2]; 5 plex,25.9 fold
same,IL1RN increase with respect to AML,HL60 cells [2]; [3],40-84 fold
same,SSP1 increase over AML,HL60 cells [2]; [3],25-55 fold

# Source: patent US20040009495A1, “Methods and products related to drug screening using gene expression patterns” (Whitehead Institute for Biomedical Research, priority 2001, published 2004)
